Measured values published in patent publication US8003345B2, “Antioxidant pharmaceutical compound, method for producing polypeptide and method of cure” (Institute of Cell Biophysics Russian Academy of Sciences, priority 2002, dated 2011).

Legend:
glutamine synthetase = assay: Comparative characteristics of peroxiredoxin activators (glutamine synthetase protection against metal-catalyzed oxidative system); format: biochemical; settings: 50 μg peroxiredoxin VI, FIG. 11
Method: The antioxidant activity was determined from the degree of glutamine synthetase protection against metal-catalyzed oxidative system. The antioxidant effectiveness of thiols was determined in molar concentration, at which 50% protection of glutamine synthetase took place.
For determining the effectiveness of peroxiredoxin activation with dithiothreitol or with dihydrolipoic acid (natural activator), use is made of the ability of peroxiredoxin to protect glutamine synthetase from inactivation caused by the metal-catalyzed oxidative system.
The degree of the peroxiredoxin activity was determined from the protein concentration value, at which 50% preservation of the glutamine synthetase activity was observed.

[1] = test system: tracheal epithelium of rat after application of lipopolysaccharide; assay: Inflammation of rat tracheal epithelium caused by lipopolysaccharide (LPS); format: in vivo
Method: The therapeutic properties of peroxiredoxin Prx VI in treating the upper respiratory tract of rat immediately after the application of LPS were checked on a group of 4 Wistar line rats weighing 150-200 grams. The application of LPS was carried out in the following manner. The rats were anesthetized with hexenal, and 100 μl of a lipopolysaccharide solution were introduced through a catheter (the lipopolysaccharide concentration was from 10^−9 to 10^−11 mg/ml, the total number of the used animals was 20). After the application of the lipopolysaccharide, the rats were maintained for a definite period of time (1 hour, 3 hours, 6 hours, 7 hours, 9 hours), then narcotized with hexenal (300 mg/kg weight), and a sample of the tracheal epithelial tissue was isolated. For histochemical investigations the isolated sample was placed into a fixing solution containing 2% of formaldehyde and 0.5% of glutaraldehyde. The tissue was dehydrated by sequential routing through ethyl alcohol with increasing concentration (40-100%). The tissue was embedded into LR white resin. The resin was polymerized at room temperature. 0.5 em-thick sections were made on an LKB ultratome (Sweden), using glass knives. The sections were stained with a hematoxylin-eosine and analyzed under a light microscope.
For biochemical investigations we scraped the epithelium with a thin spatula, washed off the scrape with physiological solution and centrifugated at 10000 g for 15 min. The concentration of hydrogen peroxide was by the luminescence method. […] After LPS, application of a solution of a composition based on peroxiredoxin Prx VI into the trachea was carried out. Preliminarily the rats were narcotized by intraperitoneal administration of hexenal (70 mg/kg), the animals were fixed on an operating table, and under visual control with the aid of a binocular lens, through a catheter of 1 mm in diameter, peroxiredoxin solution (20 to 100 μl) was introduced into the trachea. The peroxiredoxin concentration was from 0.5 to 5.0 mg/ml. A 0.9% solution of NaCl was used as the solvent. The application of the solution of the composition was carried out once, immediately after the application of LPS. The application of pure solvent, solutions of serum albumin (10 mg/ml) and of glutathione (10 mM) were used as control.
Histological investigation of the trachea was carried out 24 hrs after the LPS application.

[2] = test system: tracheal epithelium of rat after application of lipopolysaccharide; assay: as above; format: in vivo; remark: listed apart in the source
skin cuts of rats = assay: Treating skin wounds (cuts) in rats; format: in vivo, rat; settings: in 5 days; 0.5 mg/ml in 0.15 M NaCl, bandages changed once a day; against control; FIG. 10
Method: Rats were preliminarily narcotized by intraperitoneal introduction of hexenal (70 mg/kg). The animals were fixed on an operating table, and then 2-3 mm deep and 1 cm long cuts were made in the skin of both paws with the help of a razor blade. Control cuts were irrigated with physiological solution and a bactericidal plaster was applied; in the case of using peroxiredoxin, the wound was irrigated with a solution of recombinant Prx Vlhum or of its fragment ΔPrx Vlhum in 0.15 M NaCl in 0.5 mg/ml concentration, and a gauze bandage soaked with the same solutions was applied. The bandages were changed once a day.

[3] = test system: glutamine synthetase of E.coli; settings: DTT/Fe3+/O2 oxidative system, 3 mM activator, 10 min at 37° C.; FIG. 3
Method: Comparison of the protector properties of recombinant full-size Prx Vlhum with the protector properties of natural rat Prx VIrat and with the protector properties of N-terminal ΔPrx V1hum in terms of protecting glutamine synthetase of E.coli from inactivation in a model oxidative system in vitro.
For determining the activity of different types of peroxiredoxins, their ability to protect glutamine synthetase from the DTT/Fe^+3/O2 oxidative system is measured. Glutamine synthetase is isolated from cells of the E.coli DH5α strain (Streicher S. L., Tyler B., 1980) and inactivated in the presence of a Fe^3+/O2 oxidative system and a peroxiredoxin activator—in the model oxidative system generating free radicals (Kim K. et al., 1988). […] The residual activity of glutamine synthetase is assessed by adding to the sample 200 μl of a reaction mixture which comprises: ADP, 0.4 mM; glutamine, 150 mM; K—AsO4, 10 mM; NH2OH, 20 mM; MnCl2, 0.4 mM; HEPES, 100 mM, pH 7.4. […] The protector properties of peroxiredoxin for protecting glutamine synthetase of E.coli from inactivation are determined as the ratio of the remaining activity of the enzyme after the inactivation in the presence of different concentrations of peroxiredoxin to the activity of non-inactivated glutamine synthetase.

[4] = Cytotoxicity: number of live line L929 cells; format: cell-based, human; settings: 0.1-10 μg/ml concentration; Trypan stain
Method: (§1) The cytotoxicity is determined from the influence of recombinant Prx V1hum or of natural rat Prx V1rat on the level of proliferation of line L929 human lymphoblastoma cells and of T-lymphocytes from the spleen of line NRRI rats stimulated with concavalin A.
(§2) Cells of two lines with the concentration of 10^4 cells/ml medium were cultivated in RPMI 1640 containing 5% of bovine fetal serum. The stimulation of T-lymphocytes was carried out with the 0.1 μg/ml concentration of concavalin. In the case of T-lymphocytes the proliferation level was determined from the inclusion of ^3H-thymidine. The number of live line L929 cells was determined in a 96-cell plate with the aid of a Trypan stain, followed by scanning on a Multiscan multichannel photometer (LKB, Sweden).

[5] = test system: T-lymphocytes from the spleen of line NRRI rats stimulated with concavalin A; assay: Proliferation of concanavalin A-stimulated T-lymphocytes (3H-thymidine inclusion); format: cell-based; settings: 0.1-1.0 mg/ml concentration, against cells stimulated only with concavalin A
Method: as §1, §2

O=C(O)CCCC[C@@H](S)CCS (racemic) [dihydrolipoic acid]
antioxidant effectiveness of thiols (degree of glutamine synthetase protection) (glutamine synthetase): almost equal to dithiothreitol and substantially surpasses the effectiveness of lipoic acid

N[C@@H](CCC(=O)N[C@@H](CS)C(=O)NCC(=O)O)C(=O)O [Glutathione, glutathione, reference compound]
Integrity of tracheal epithelium (according to histological data) ([1]; Time after the action of LPS: 1 hour): 30% | Integrity of tracheal epithelium (according to histological data) ([1]; Time after the action of LPS: 3 hours): 20% | Integrity of tracheal epithelium (according to histological data) ([1]; Time after the action of LPS: 6 hours): 10% | Integrity of tracheal epithelium (according to histological data) ([2]; Treatment 24 hours later for 5 days and the integrity of epithelium 2 weeks later): 20% | effect on tracheal epithelium after LPS (in words) ([2]; other antioxidants, see Table 2): no significant effect

B1: ΔPrx VIhum: N-terminal fragment of human peroxiredoxin Prx VI (SEQ ID NO: 2), length 177 a.b., molecular mass 19691.61 Da (protein, listed as Homo sapiens)
chain: MPGGLLLGDVAPNFEANTTVGRIRFHDFLGDSWGILFSHPRDFTPVCTTELGRAAKLAPEFAKRNVKLIALSIDSVEDHLAWSKDINAYNCEEPTEKLPFPIIDDRNRELAILLGMLDPAEKDEKGMPVTARVVFVFGPDKKLKLSILYPATTGRNFDEILRVVISLQLTAEKRVATPVDWKDGDSVMVLPTIPEEEAKKLFPKGVFTKELPSGKKYLRYTPQP
healing of the wound (skin cuts of rats): almost complete healing of the wound | protector properties: antioxidant characteristics in protecting glutamine synthetase from inactivation [3]: close to the recombinant full-size Prx Vlhum

B2: Prx VIrat: natural peroxiredoxin isolated from the olfactory epithelium of a Wistar line rat, 223 amino acids (protein, UniProt O35244 2-224, looked up)
Peroxiredoxin-6: PGGLLLGDEAPNFEANTTIGHIRFHDFLGDSWGILFSHPRDFTPVCTTELGRAAKLAPEFAKRNVKLIALSIDSVEDHFAWSKDINAYNGAAPTEKLPFPIIDDKDRDLAILLGMLDPAEKDEKGMPVTARVVFIFGPDKKLKLSILYPATTGRNFDEILRVVDSLQLTASNPVATPVDWKKGESVMVLPTLPEEEAKQLFPKGVFTKELPSGKKYLRYTPQP
effect on the number of live line L929 cells [4]: did not produce any effect | cell proliferation level of T-lymphocytes stimulated with concavalin A [5]: increased approximately twofold
